Data reported in patent US20250127787A1, “METHODS FOR TREATING PERIPHERAL NEUROPATHY” (University of Pittsburgh - Of the Commonwealth System of …, priority 2021, published 2025).
Entries after “also recorded” stand apart in the source; their conditions may differ.

Tests used:
mitofusin 2 (MFN2) = assay: MFN2 expression in CYP-CIPN rat hindpaw epidermis, Western immunoblotting; type: in vivo; conditions: 8-AG 5 mg/kg/day in drinking water
Description: Animals. This study employed female Harlan Sprague Dawley (HSD) rats (3-4 mo; Envigo, Indianapolis, IN) and were divided into the following groups: 1) Control, 2) Cyclophosphamide (CYP, 75 mg/kg i.p. in saline vehicle; administered on days 0, 3 and 6); 3) 8-aminoguanine (8-AG; 5 mg/kg/day in drinking water; beginning 2 weeks prior to CYP and continuing until sacrifice (day 8)). The dose of 8-AG is based on our preliminary and published experiments. […] The investigation conforms to the Guide for the Care and Use of Laboratory Animals published by the US National Institutes of Health (NIH Publication No. 85-23, revised 1996). […]
Western immunoblotting: Following the testing paradigms, rats were deeply anesthetized and tissues (e.g., epidermis, peripheral sciatic nerves, spinal cord segments (L3-L5) and dorsal root ganglia (L3-L5) were removed, and a portion of each preparation was homogenized using Lysing Matrix D in a FASTPREP® 24 instrument (MP Biomedicals, Solon, OH) in HBSS [5 mM KCl, 0.3 mM KH2PO4, 138 mM NaCl, 4 mM NaHO3, 0.3 mM Na2HCO3, 0.3 mM Na2HPO4, 5.6 mM glucose and 10 mM Hepes, pH 7.4 containing complete protease inhibitor cocktail (1 tablet/10 ml, Roche, Indianapolis, IN)] and phosphatase inhibitor cocktail (Sigma, 1:100). […] The protein concentrations of the supernatants were determined using the Pierce BCA protein assay (Thermo Scientific, Rockford, IL). […]

sciatic nerve-crush rats = assay: Von Frey sensory testing after sciatic nerve crush; type: in vivo, rat; conditions: hindpaw footpad, day 2 and day 5 post injury, 8-AG 5 mg/kg/day in drinking water
Description: Animals. This study employed female Harlan Sprague Dawley (HSD) rats (3-4 mo; Envigo, Indianapolis, IN) and were divided into the following groups: 1) Control, 2) Sciatic nerve crush (day 0, sacrifice on day 6); 3) 8-aminoguanine (8-AG; 5 mg/kg/day in drinking water; beginning 2 weeks prior to nerve crush and continuing until sacrifice (day 6)). The dose of 8-AG is based on the work above and published experiments. Further, the water consumption/day was tracked. […] All tissues (hindpaw epidermis) were removed from isoflurane anesthetized rats and the tissue was used for various experimental approaches as described below. At the end of tissue removal, animals were sacrificed by thoracotomy.
Von Frey sensory testing. Control, sciatic nerve crush (one of the most common models of peripheral nerve injury in rodents) and 8-AG-treated sciatic nerve-crush rats were placed in an elevated chamber on a wire mesh floor and after acclimatization, calibrated von Frey microfilaments were applied to determine paw withdrawal threshold (PWT, in grams). Briefly, microfilaments (Stoelting Corp, USA) were applied with different forces perpendicularly to the plantar surface of both ipsilateral and contralateral hindpaw by increasing and decreasing stimulus intensity. […]

Q: Which “effect on CYP-induced decrease in MFN2 expression” value (mitofusin 2 (MFN2)) does the source give for Nc1nc2[nH]c(N)nc2c(=O)[nH]1 [8-AG, 8-Aminoguanine] here?
A: reversed

Q: And the “effect on injury-induced increase in sensitivity to mechanical stimuli (paw withdrawal threshold)” value (sciatic nerve-crush rats)?
A: restored to control values; also recorded: normalized

Q: And the “effect on injury-induced increase in sensitivity to mechanical stimuli (paw withdrawal threshold)” value (sciatic nerve-crush rats; listed as 8-Aminoguanine)?
A: normalized
